For 18 compounds, IC50 results are on record in USRE50528E1, “Compounds and compositions for modulating EGFR mutant kinase activities” (Yuhan Corporation, priority 2014, dated 2025).

Assay [1] addresses T1, EGFR mutant T790M (Homo sapiens, UniProt P00533, T790M).
T1 construct: truncated human JAK3, EGFR mutants such as del E746-A750; purchased Carna Biosciences
The assay is described as follows: Kinase inhibition assay, EGFR mutant T790M.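 Further: truncated human EGFR mutant enzyme preincubated two hours with compound, then ATP plus ULight-PolyGT peptide for one hour, Europium-labeled antibody LANCE detection, IC50.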 The settings on record: biochemical potency.

The target in assay [2] is T2, EGFR mutant Del19/T790M (Homo sapiens, UniProt P00533, DEL746-750/T790M).
T2 construct: truncated human JAK3, EGFR mutants such as del E746-A750; purchased Carna Biosciences
T2 sequence (P00533 with tags, fused parts or gaps DEL746-750/T790M limits assumed): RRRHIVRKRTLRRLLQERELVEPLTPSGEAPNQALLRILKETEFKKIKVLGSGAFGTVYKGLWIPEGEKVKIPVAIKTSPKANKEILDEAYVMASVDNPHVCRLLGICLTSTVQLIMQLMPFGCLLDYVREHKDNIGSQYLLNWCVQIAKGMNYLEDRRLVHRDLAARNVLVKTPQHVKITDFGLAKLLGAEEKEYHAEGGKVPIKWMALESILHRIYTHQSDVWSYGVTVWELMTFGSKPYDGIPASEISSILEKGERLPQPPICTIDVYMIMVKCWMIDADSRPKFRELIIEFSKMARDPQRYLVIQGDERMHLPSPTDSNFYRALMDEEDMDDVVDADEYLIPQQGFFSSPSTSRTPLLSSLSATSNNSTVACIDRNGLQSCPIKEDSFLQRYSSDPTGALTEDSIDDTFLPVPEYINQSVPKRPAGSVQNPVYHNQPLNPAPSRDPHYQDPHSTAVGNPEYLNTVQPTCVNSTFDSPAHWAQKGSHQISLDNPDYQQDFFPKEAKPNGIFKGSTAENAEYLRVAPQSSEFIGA
The assay is described as follows: Kinase inhibition assay, EGFR del E746-A750/T790M. The class given is biochemical. The settings on record: read-out: EGFR mutants Del19/T790M.

Assay [3] addresses T3, SYK (Homo sapiens, UniProt P43405).
T3 construct: Purified human, full-length SYK, KDR; purchased Carna Biosciences
The assay is described as follows: Kinase inhibition assay, SYK.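 Further: purified full-length human SYK pre-incubated 30 min with compound, then ULight-TK peptide phosphorylation for 1 h, detected with Europium-labeled antibody in Lance buffer.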 The class given is biochemical. Particulars: biochemical potency.

Assay [4] addresses T4, EGFR mutant Del19 (E746-A750) (Homo sapiens, UniProt P00533, DEL746-750).
T4 construct: truncated human JAK3, EGFR mutants such as del E746-A750; purchased Carna Biosciences
The assay is described as follows: Kinase inhibition assay, EGFR del E746-A750.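 Further: truncated human EGFR mutant kinase, two-hour preincubation with compound, then one-hour reaction with ATP and ULight-PolyGT peptide, LANCE Europium-antibody phosphorylation readout, IC50.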 The assay is classed as biochemical. The settings on record: read-out: EGFR mutants Del19 (E746-A750).

Assay [5] has as its target T5, EGFR mutant L858R/T790M (Homo sapiens, UniProt P00533, L858R/T790M).
T5 construct: truncated human JAK3, EGFR mutants such as del E746-A750; purchased Carna Biosciences
The assay is described as follows: Kinase inhibition assay, EGFR L858R/T790M.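 Further: truncated human enzyme preincubated two hours with compound, then one hour with one millimolar ATP and ULight-PolyGT peptide, Europium-labeled antibody detection, IC50.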 The class given is biochemical. The settings on record: read-out: EGFR mutants L858R/T790M.

Assay [6] addresses T6, EGFR mutant L858R (Homo sapiens, UniProt P00533, L858R).
T6 construct: truncated human JAK3, EGFR mutants such as del E746-A750; purchased Carna Biosciences
The assay is described as follows: Kinase inhibition assay, EGFR L858R.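 Further: truncated human EGFR L858R kinase with compound preincubation, ULight-PolyGT peptide phosphorylation read by Europium-antibody Lance detection, IC50.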 The assay is classed as biochemical. The settings on record: read-out: EGFR mutants L858R.

T5 sequence (P00533 669-1210 T790M/L858R limits assumed): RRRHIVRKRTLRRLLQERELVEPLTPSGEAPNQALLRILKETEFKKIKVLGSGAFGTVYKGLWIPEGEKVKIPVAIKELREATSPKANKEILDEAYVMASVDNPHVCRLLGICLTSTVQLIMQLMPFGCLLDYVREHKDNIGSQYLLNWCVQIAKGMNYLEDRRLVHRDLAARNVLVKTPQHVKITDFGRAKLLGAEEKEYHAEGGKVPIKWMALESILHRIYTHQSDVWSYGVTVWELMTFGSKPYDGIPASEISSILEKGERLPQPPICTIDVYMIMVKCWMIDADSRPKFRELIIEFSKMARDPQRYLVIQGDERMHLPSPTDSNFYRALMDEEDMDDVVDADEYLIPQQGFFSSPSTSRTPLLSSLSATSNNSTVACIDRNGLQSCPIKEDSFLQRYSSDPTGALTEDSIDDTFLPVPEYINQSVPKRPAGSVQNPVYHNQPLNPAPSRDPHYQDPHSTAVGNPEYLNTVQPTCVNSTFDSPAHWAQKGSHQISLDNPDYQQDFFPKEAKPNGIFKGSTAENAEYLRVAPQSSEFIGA
T6 sequence (P00533 669-1210 L858R limits assumed): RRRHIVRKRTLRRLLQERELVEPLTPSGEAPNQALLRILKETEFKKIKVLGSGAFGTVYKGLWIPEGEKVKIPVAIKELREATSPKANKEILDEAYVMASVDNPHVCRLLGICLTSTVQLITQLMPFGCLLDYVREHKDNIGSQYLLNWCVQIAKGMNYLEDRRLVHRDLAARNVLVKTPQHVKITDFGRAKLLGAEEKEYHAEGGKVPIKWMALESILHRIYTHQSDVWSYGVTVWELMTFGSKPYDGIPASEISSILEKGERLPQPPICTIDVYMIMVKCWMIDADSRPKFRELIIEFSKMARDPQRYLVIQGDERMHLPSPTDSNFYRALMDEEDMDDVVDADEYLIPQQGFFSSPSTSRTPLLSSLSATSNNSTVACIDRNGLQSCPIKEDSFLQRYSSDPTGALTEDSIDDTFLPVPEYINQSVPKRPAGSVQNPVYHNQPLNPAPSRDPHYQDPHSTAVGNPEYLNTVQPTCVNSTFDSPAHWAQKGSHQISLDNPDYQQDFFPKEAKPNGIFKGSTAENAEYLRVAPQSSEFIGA
T1 sequence (P00533 669-1210 T790M limits assumed): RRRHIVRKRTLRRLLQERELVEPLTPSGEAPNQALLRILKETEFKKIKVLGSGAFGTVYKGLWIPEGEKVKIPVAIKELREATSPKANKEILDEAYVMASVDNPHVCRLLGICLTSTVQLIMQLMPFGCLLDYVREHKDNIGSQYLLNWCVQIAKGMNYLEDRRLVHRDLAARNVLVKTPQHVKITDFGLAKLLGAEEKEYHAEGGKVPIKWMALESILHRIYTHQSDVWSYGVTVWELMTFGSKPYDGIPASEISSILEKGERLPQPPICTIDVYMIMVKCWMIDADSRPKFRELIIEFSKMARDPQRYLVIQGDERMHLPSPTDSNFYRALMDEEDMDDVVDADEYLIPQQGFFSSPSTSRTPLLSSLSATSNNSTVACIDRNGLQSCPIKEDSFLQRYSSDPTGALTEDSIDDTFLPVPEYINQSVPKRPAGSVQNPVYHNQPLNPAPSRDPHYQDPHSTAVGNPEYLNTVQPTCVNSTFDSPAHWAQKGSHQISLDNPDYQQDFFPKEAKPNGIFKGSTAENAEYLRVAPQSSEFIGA
T4 sequence (P00533 with tags, fused parts or gaps DEL746-750 limits assumed): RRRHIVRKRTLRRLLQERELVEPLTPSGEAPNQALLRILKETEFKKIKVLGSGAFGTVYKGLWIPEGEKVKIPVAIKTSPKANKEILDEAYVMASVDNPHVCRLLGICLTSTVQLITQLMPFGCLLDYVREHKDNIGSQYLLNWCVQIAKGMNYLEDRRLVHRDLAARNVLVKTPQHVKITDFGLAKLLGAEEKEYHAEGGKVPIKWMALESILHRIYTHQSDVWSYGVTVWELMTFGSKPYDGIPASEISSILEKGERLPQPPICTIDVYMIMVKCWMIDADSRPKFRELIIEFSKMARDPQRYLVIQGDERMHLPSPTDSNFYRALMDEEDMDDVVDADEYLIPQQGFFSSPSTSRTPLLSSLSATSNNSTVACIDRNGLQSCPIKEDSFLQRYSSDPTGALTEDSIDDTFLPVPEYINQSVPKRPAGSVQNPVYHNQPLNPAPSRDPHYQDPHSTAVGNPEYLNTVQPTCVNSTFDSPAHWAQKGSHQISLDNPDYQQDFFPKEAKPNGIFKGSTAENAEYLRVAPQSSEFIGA

For `C=CC(=O)Nc1cc(Nc2ncc(C)c(-n3cc(CN(C)C4CN(C)C4)cn3)n2)c(OC)cc1N1CCOCC1` [Compound 23, N-(4-methoxy-5-(5-methyl-4-(4-((methyl(1-methylazetidin-3-yl)amino)methyl)-1H-pyrazol-1-yl)pyrimidin-2-ylamino)-2-morpholinophenyl)acrylamide], the IC50 was 201 to 1000 nM in assay [1]; 201 to 1000 nM in assay [2]; more than 1000 nM in assay [3]; 201 to 1000 nM in assay [4]; 201 to 1000 nM in assay [5].
As to `C=CC(=O)Nc1cc(Nc2nccc(-n3cc(CN4CC[C@H](N(C)C)C4)cn3)n2)c(OC)cc1N1CCOCC1` [Compound 35, (S)—N-(5-(4-(4-((3-(dimethylamino)pyrrolidin-1-yl)methyl)-1H-pyrazol-1-yl)pyrimidin-2-ylamino)-4-methoxy-2-morpholinophenyl)acrylamide], the IC50 in assay [2] is 20 to 200 nM; in assay [3], more than 1000 nM; in assay [4], 201 to 1000 nM; in assay [6], 201 to 1000 nM; in assay [5], 201 to 1000 nM.
For `C=CC(=O)Nc1cc(Nc2nccc(-n3cc(CN4CC[C@@H](N(C)C)C4)cn3)n2)c(OC)cc1N1CCOCC1` [Compound 39, (R)—N-(5-(4-(4-((3-(dimethylamino)pyrrolidin-1-yl)methyl)-1H-pyrazol-1-yl)pyrimidin-2-ylamino)-4-methoxy-2-morpholinophenyl)acrylamide], the IC50 in assay [2] is 20 to 200 nM; in assay [3], more than 1000 nM; in assay [4] it was 201 to 1000 nM; in assay [6] it was 201 to 1000 nM; in assay [5] it was 201 to 1000 nM.
In the case of `C=CC(=O)Nc1cc(Nc2nccc(-n3cc(CN4CCC4)c(C)n3)n2)c(OC)cc1-c1ccccc1OC` [Compound 68, N-(4-(4-(4-(azetidin-1-ylmethyl)-3-methyl-1H-pyrazol-1-yl)pyrimidin-2-ylamino)-2′,5-dimethoxybiphenyl-2-yl)acrylamide], the IC50 was 20 to 200 nM in assay [2]; more than 1000 nM in assay [3]; 20 to 200 nM in assay [4]; 201 to 1000 nM in assay [6]; 20 to 200 nM in assay [5].
As to `C=CC(=O)Nc1cc(Nc2nccc(-n3cc(CN4CCC4)c(C)n3)n2)c(OC)cc1N1CCC(F)(F)CC1` [Compound 69, N-(5-(4-(4-(azetidin-1-ylmethyl)-3-methyl-1H-pyrazol-1-yl)pyrimidin-2-ylamino)-2-(4,4-difluoropiperidin-1-yl)-4-methoxyphenyl)acrylamide], the IC50 in assay [2] is less than 20 nM; in assay [3], more than 1000 nM; in assay [4], less than 20 nM; in assay [6], 20 to 200 nM; in assay [5] it was 20 to 200 nM.
`C=CC(=O)Nc1cc(Nc2nccc(-n3ccc(-c4ccccc4)n3)n2)c(OC)cc1N1CCN(C)CC1` [Compound 85, N-(4-methoxy-2-(4-methylpiperazin-1-yl)-5-(4-(3-phenyl-1H-pyrazol-1-yl)pyrimidin-2-ylamino)phenyl)acrylamide]: the IC50 was less than 20 nM in assay [1]; less than 20 nM in assay [2]; less than 20 nM in assay [4]; 20 to 200 nM in assay [6]; 20 to 200 nM in assay [5].
Regarding `C=CC(=O)Nc1cc(Nc2nccc(-n3cc(CN(C)C)c(-c4cc(C)ccc4C)n3)n2)c(OC)cc1N1CCOCC1` [Compound 89, N-(5-(4-(4-((dimethylamino)methyl)-3-(2,5-dimethylphenyl)-1H-pyrazol-1-yl)pyrimidin-2-ylamino)-4-methoxy-2-morpholinophenyl)acrylamide], the IC50 in assay [1] was 20 to 200 nM; in assay [2], less than 20 nM; in assay [4] it was 20 to 200 nM; in assay [6] it was 20 to 200 nM; in assay [5] it was less than 20 nM.
Turning to `C=CC(=O)Nc1cc(Nc2nccc(-n3cc(CO)c(-c4ccccc4)n3)n2)c(OC)cc1N1CCOCC1` [Compound 91, N-(5-(4-(4-(hydroxymethyl)-3-phenyl-1H-pyrazol-1-yl)pyrimidin-2-ylamino)-4-methoxy-2-morpholinophenyl)acrylamide], the IC50 is 201 to 1000 nM in assay [1]; less than 20 nM in assay [2]; less than 20 nM in assay [4]; 20 to 200 nM in assay [6]; 20 to 200 nM in assay [5].
Take `C=CC(=O)Nc1cc(Nc2nccc(-n3cc(CN(C)C)c(C(C)C)n3)n2)c(OC)cc1N(C)CCOC` [Compound 112, N-(5-(4-(4-((dimethylamino)methyl)-3-isopropyl-1H-pyrazol-1-yl)pyrimidin-2-ylamino)-4-methoxy-2-((2-methoxyethyl)(methyl)amino)phenyl)acrylamide]: the IC50 in assay [1], in assay [2], in assay [4], in assay [6] and in assay [5] was less than 20 nM throughout.
With `C=CC(=O)Nc1cc(Nc2nccc(-n3cc(CN4CCC4)c(C(C)C)n3)n2)c(OC)cc1N(C)CCOC` [Compound 113, N-(5-(4-(4-(azetidin-1-ylmethyl)-3-isopropyl-1H-pyrazol-1-yl)pyrimidin-2-ylamino)-4-methoxy-2-((2-methoxyethyl)(methyl)amino)phenyl)acrylamide], the IC50 in assay [1], in assay [2], in assay [4], in assay [6] and in assay [5] was less than 20 nM in each case.
Regarding `C=CC(=O)Nc1cc(Nc2ncc(C)c(-n3cc(CN4CCC4)c(-c4ccccc4)n3)n2)c(OC)cc1N1CCOCC1` [Compound 121, N-(5-(4-(4-(azetidin-1-ylmethyl)-3-phenyl-1H-pyrazol-1-yl)-5-methylpyrimidin-2-ylamino)-4-methoxy-2-morpholinophenyl)acrylamide], the IC50 in assay [1], in assay [2], in assay [4], in assay [6] and in assay [5] was less than 20 nM each time.
`C=CC(=O)Nc1cc(Nc2ncc(C)c(-n3cc(CN4CCC4)c(C(C)C)n3)n2)c(OC)cc1N1CCOCC1` [Compound 125, N-(5-(4-(4-(azetidin-1-ylmethyl)-3-isopropyl-1H-pyrazol-1-yl)-5-methylpyrimidin-2-ylamino)-4-methoxy-2-morpholinophenyl)acrylamide]: the IC50 in assay [1], in assay [2], in assay [4], in assay [6] and in assay [5] was less than 20 nM throughout.
`C=CC(=O)Nc1cc(Nc2nccc(-n3cc(CN(C)C)c(C(C)(C)C)n3)n2)c(OC)cc1N(CC)CCOC` [Compound 126, N-(5-(4-(3-tert-butyl-4-((dimethylamino)methyl)-1H-pyrazol-1-yl)pyrimidin-2-ylamino)-2-(ethyl(2-methoxyethyl)amino)-4-methoxyphenyl)acrylamide]: the IC50 in assay [1] was 20 to 200 nM; in assay [2], less than 20 nM; in assay [4], less than 20 nM; in assay [6], less than 20 nM; in assay [5] it was less than 20 nM.
As to `C=CC(=O)Nc1cc(Nc2nccc(-n3cc(CN(C)C)c(-c4cccnc4)n3)n2)c(OC)cc1N1CCOCC1` [Compound 128, N-(5-(4-(4-((dimethylamino)methyl)-3-(pyridin-3-yl)-1H-pyrazol-1-yl)pyrimidin-2-ylamino)-4-methoxy-2-morpholinophenyl)acrylamide], the IC50 in assay [1], in assay [2], in assay [4], in assay [6] and in assay [5] was less than 20 nM each time.
For the compound `C=CC(=O)Nc1cc(Nc2ncc(C)c(-n3cc(CN(C)C)c(C4CC4)n3)n2)c(OC)cc1N(C)C1COC1` [Compound 132, N-(5-(4-(3-cyclopropyl-4-((dimethylamino)methyl)-1H-pyrazol-1-yl)-5-methylpyrimidin-2-ylamino)-4-methoxy-2-(methyl(oxetan-3-yl)amino)phenyl)acrylamide], the IC50 in assay [1], in assay [2], in assay [4], in assay [6] and in assay [5] was less than 20 nM in each case.
On to `C=CC(=O)Nc1cc(Nc2nccc(-n3cc(CN(C)C)c(-c4ccncc4)n3)n2)c(OC)cc1N1CCOCC1` [Compound 136, N-(5-(4-(4-((dimethylamino)methyl)-3-(pyridin-4-yl)-1H-pyrazol-1-yl)pyrimidin-2-ylamino)-4-methoxy-2-morpholinophenyl)acrylamide], for which the IC50 in assay [1], in assay [2], in assay [4], in assay [6] and in assay [5] was less than 20 nM each time.
On to `C=CC(=O)Nc1cc(Nc2nccc(-n3cc(CN(C)CC)c(C4CC4)n3)n2)c(OC)cc1N1CCN(C(C)=O)CC1` [Compound 137, N-(2-(4-acetylpiperazin-1-yl)-5-(4-(3-cyclopropyl-4-((ethyl(methyl)amino)methyl)-1H-pyrazol-1-yl)pyrimidin-2-ylamino)-4-methoxyphenyl)acrylamide], for which the IC50 in assay [1], in assay [2], in assay [4], in assay [6] and in assay [5] was less than 20 nM throughout.
On to `C=CC(=O)Nc1cc(Nc2nccc(-n3cc(CN(C)CC)c(C)n3)n2)c(OC)cc1N1CCOCC1` [Compound 145, N-(5-(4-(4-((ethyl(methyl)amino)methyl)-3-methyl-1H-pyrazol-1-yl)pyrimidin-2-ylamino)-4-methoxy-2-morpholinophenyl)acrylamide], for which the IC50 in assay [1] was 20 to 200 nM; in assay [2], less than 20 nM; in assay [4], less than 20 nM; in assay [6] it was less than 20 nM; in assay [5], less than 20 nM.
